One series concerns the target T1, CYP2D6 (Homo sapiens, UniProt P10635).
T1 construct: A system containing 100 μL of human liver microsomes; from tissue; host or cells: human liver microsomes
Kind of series: Direct inhibition test (DI test) in human liver microsomes, CYP2D6. It counts as in vitro ADME. On the procedure: (§1) (2) Direct inhibition test (DI test): A system containing 100 μL of human liver microsomes (final concentration of 0.2 mg/mL) was subjected to a direct inhibition incubation, and the system contained NADPH (final concentration of 1 mM), 10 μM compound, positive inhibitor cocktail (10 μM ketoconazole, 10 μM quinidine, 100 μM sulfaphenazole, 10 μM α-naphthoflavone, 1,000 μM tranylcypromine), negative control (BPS of 0.1% DMSO), and mixed probe substrates (10 μM midazolam, 100 μM testosterone, 10 μM dextromethorphan, […], 100 μM phenacetin, 100 μM mephenytoin). After 20 minutes of incubation, the reaction was stopped. The relative activity of the enzyme was calculated by measuring the relative production of metabolites.
On the technique in general: Liver microsomes are a subcellular fraction often used to study metabolism.

Series [1] can be described thus: Liver microsomal stability, comparisons in words across species. It counts as in vitro ADME. The note with it: different species; versus the comparative compounds. On the procedure: (§2) The reaction was stopped with tinidazole-containing acetonitrile at 0 min, 5 min, 10 min and 30 min, respectively. After vortexing for 10 min and centrifuging at 15,000 rmp for 10 min, 50 μL of the supernatant was injected into a 96-well plate. The metabolic stability of the compound was calculated by determining the relative reduction of the drug, calculated as half-life T1/2.

The nature of series [2]: Liver microsomal metabolic stability, human. Type of series: in vitro ADME. The note with it: liver microsomes, 0.5 mg/mL microsomes, 1 μM compound, NADPH, read-out: Liver microsomal stability T1/2. The method, then: as §2
A further series addresses T2, CYP2C19 (Homo sapiens, UniProt P33261).
T2 construct: A system containing 100 μL of human liver microsomes; from tissue; host or cells: human liver microsomes
Description: Direct inhibition test (DI test) in human liver microsomes, CYP2C19. It counts as in vitro ADME. On the procedure: as §1

Series [3] in a line: Liver microsomal metabolic stability, dog. It counts as in vitro ADME. The note with it: liver microsomes, 0.5 mg/mL microsomes, 1 μM compound, NADPH, read-out: Liver microsomal stability T1/2. On the procedure:
as §2

Series [4] is described as follows: Liver microsomal metabolic stability, mouse. Type of series: in vitro ADME. The settings on record: liver microsomes, 0.5 mg/mL microsomes, 1 μM compound, NADPH, read-out: Liver microsomal stability T1/2. The method, then:
as §2

Series [5] in a line: In-vivo pharmacokinetic parameters in mice. Details: species or system Balb-c mice. The essentials:
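Male SD rats or Balb-c mice were dosed intravenously at 1 mg/kg or orally at 5 mg/kg. Jugular-vein plasma was sampled up to 24 h and analysed by LC-MS/MS. Non-compartmental analysis gave AUC, MRT, Cmax, Tmax, T1/2, Vd and oral bioavailability (F).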

The target in a further series is T3, CYP3A4 (Homo sapiens, UniProt P08684).
T3 construct: A system containing 100 μL of human liver microsomes; from tissue; host or cells: human liver microsomes
Description: Direct inhibition test (DI test) in human liver microsomes, CYP3A4. It counts as in vitro ADME. On the procedure: as §1

A further series has as its target T4, CYP1A2 (Homo sapiens, UniProt P05177).
T4 sequence (P05177 1-516): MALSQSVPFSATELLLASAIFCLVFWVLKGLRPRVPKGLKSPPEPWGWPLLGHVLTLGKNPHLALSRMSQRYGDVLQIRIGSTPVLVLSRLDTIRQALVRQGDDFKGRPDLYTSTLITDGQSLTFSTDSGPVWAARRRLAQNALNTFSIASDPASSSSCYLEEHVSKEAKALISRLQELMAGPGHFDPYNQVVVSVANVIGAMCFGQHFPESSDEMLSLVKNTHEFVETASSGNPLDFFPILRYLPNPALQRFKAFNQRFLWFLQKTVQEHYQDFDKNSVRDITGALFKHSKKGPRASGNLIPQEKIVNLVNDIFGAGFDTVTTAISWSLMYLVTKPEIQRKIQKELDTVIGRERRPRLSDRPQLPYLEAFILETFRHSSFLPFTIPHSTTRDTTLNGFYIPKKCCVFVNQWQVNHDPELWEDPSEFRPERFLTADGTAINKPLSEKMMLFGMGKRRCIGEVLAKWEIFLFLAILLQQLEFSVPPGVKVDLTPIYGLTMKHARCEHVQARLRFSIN
Description: Direct inhibition test (DI test) in human liver microsomes, CYP1A2. The method, then:
as §1

A further series has as its system Colo-205 cells. Kind of series: Colo-205 tumor cell proliferation, CCK-8, 72 hours. It counts as cell-based.
Where [6] appears, read: male, Balb-c, mouse, plasma, IV, 1 mg/kg.
Setting [7] is: male, Balb-c, mouse, plasma, PO, 5 mg/kg.

T1 sequence (P10635 whole entry): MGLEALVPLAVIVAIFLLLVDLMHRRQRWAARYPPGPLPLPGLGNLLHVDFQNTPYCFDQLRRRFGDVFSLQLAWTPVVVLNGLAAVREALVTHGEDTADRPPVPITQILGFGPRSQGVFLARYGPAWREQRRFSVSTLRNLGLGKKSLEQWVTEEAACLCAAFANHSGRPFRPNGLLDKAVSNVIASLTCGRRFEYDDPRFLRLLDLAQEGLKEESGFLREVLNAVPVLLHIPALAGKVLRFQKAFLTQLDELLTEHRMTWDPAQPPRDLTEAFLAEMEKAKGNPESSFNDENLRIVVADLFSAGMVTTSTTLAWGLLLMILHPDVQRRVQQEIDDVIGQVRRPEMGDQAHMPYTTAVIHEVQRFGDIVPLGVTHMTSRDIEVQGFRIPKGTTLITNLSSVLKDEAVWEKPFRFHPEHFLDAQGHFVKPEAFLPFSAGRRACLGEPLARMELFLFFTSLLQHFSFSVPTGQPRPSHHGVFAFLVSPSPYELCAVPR
T2 sequence (P33261 whole entry): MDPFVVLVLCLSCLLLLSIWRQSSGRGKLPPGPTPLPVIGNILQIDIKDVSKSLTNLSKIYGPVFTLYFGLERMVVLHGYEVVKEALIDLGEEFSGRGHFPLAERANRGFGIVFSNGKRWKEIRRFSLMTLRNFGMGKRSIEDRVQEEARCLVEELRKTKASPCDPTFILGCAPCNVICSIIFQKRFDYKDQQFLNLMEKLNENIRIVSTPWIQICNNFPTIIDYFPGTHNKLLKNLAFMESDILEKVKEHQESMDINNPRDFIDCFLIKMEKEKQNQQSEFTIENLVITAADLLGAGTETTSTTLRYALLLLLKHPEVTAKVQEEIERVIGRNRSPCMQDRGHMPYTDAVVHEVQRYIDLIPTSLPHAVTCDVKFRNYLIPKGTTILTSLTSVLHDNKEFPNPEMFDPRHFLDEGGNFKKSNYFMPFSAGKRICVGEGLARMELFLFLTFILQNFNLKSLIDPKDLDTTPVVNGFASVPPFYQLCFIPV
T3 sequence (P08684 whole entry): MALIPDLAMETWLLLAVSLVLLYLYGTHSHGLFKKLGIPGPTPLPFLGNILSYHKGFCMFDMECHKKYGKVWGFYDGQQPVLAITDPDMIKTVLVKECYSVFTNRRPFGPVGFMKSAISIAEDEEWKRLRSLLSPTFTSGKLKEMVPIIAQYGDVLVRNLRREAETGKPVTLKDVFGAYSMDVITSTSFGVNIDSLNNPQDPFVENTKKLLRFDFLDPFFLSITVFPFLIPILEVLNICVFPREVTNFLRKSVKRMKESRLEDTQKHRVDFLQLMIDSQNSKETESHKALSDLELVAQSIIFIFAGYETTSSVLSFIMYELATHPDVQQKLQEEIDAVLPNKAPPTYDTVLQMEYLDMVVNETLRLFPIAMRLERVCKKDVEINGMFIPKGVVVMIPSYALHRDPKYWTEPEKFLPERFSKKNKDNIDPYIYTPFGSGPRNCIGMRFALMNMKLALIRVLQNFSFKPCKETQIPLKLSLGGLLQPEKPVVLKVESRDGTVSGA

Broadly, the IC50 is the concentration needed to halve the response being measured. What is called AUC(0-inf) is the area under the concentration-time curve extrapolated to infinity. Low readings indicate less exposure, high ones more exposure. As usually defined, the AUC(0-t) is the area under the concentration-time curve up to a stated or last time point. A higher AUC(0-t) goes with high exposure. Broadly, the MRT inf is a mean duration of stay, worked out from the concentration-time curve. By clearance is commonly meant the volume of plasma or blood freed of the substance per unit of time. Lower therefore signals inefficient removal. The Cmax is the maximum level reached in the sampled fluid or tissue. Broadly, the Tmax is the time at which the peak concentration occurs. In the case of `COc1cc(F)cc([C@@H](CO)NC(=O)[C@@H](C)N2Cc3ccc(-c4nc(NC5CCOCC5)ncc4F)c(F)c3C2=O)c1` [Embodiment 40], the IC50 at CYP2D6 is more than 10 µM; against CYP2C19, more than 10 µM; on CYP3A4, more than 10 µM; at CYP1A2 it was more than 10 µM; with Colo-205 cells (Homo sapiens, COLO 205, 72 hours, CCK-8, numeric values, read-out: Colo-205 IC50), 0.0038 µM. Moreover, the “stability of different kinds of liver microsomes (in words)” value in [1] was “significant advantages”. Further, the half-life at 1 μM in series [2] was 14 min; in series [3], 73 min; in series [4] it was 13 min. The compound further showed a F in series [5] (PO 5 mg/kg vs IV 1 mg/kg) of 59%. Further, the area under the curve AUC(0-inf) was 0.368 µM·h in [5] (setting [6]) and 1.09 µM·h in series [5] (setting [7]). The figures for the AUC(0-t) in series [5] (setting [6]) and in series [5] (setting [7]) were 0.365 µM·h and 1.08 µM·h, respectively. In series [5] (setting [6]), this compound had an MRT inf of 12 min. The same compound registered a clearance in series [5] (setting [6]) of 78 mL/min/kg. Besides, the half-life in [5] (setting [6]) was 36 min; in series [5] (setting [7]), 66 min. Moreover, the Vd in series [5] (male, Balb-c, mouse, plasma, IV, 1 mg/kg, read-out: Vss) was determined as 1 L/kg. The same compound displayed a Cmax in [5] (setting [7]) of 1200 nM. Further, in [5] (setting [7]), the Tmax was determined as 18 min. Further, the “cell proliferation inhibitory activity (in words)” value in the series with Colo-205 cells (Colo-205) was “strong cell proliferation inhibitory activity”.

Source of the values: patent publication US20230312564A1, “AROMATIC RING-LACTAM COMPOUND, PREPARATION METHOD THEREFOR AND USE THEREOF” (SHANGHAI RINGENE BIOPHARMA CO., LTD., priority 2020, published 2023).
